Measurements taken from ChEMBL document CHEMBL5543112, “Discovery of CBPD-268 as an Exceptionally Potent and Orally Efficacious CBP/p300 PROTAC Degrader Capable of Achieving Tumor Regression” (J Med Chem, 2024).

Legend:
[1] = Drug distribution in SCID mouse spleen at 1 mg/kg, po measured at 6 hrs by LC-MS/MS analysis; format: ADME, organism-based; details: read-out: Ct
[2] = biological target: T1, Protein cereblon/histone acetyltransferase (Rattus norvegicus, UniProt Q56AP7+Q91XT0); assay: PROTAC activity at p300/CRBN in rat RG2 cells assessed as induction of p300 degradation; format: cell-based
T1 sequence (Q56AP7 whole entry): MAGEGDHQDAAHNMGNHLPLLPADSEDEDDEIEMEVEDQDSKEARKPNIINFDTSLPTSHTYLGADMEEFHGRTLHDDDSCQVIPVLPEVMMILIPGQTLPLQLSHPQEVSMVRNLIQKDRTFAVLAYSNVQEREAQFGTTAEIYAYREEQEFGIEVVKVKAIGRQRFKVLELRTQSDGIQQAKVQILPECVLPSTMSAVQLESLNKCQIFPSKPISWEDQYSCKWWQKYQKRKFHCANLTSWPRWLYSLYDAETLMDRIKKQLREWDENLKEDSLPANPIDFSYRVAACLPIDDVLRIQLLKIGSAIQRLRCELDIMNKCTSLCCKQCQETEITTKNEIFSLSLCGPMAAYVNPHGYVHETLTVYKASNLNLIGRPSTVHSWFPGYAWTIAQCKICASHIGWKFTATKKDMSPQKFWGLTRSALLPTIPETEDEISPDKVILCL
T1 sequence (Q91XT0 whole entry): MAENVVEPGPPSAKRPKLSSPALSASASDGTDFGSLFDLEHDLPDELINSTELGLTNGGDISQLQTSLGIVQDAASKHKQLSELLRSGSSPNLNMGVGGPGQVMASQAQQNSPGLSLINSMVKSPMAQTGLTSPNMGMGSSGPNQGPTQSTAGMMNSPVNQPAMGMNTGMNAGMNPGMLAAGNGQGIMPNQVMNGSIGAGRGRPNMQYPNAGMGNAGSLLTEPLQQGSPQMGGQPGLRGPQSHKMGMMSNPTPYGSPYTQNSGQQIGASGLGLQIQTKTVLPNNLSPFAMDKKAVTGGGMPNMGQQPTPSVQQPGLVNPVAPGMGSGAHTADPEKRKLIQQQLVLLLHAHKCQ

[3] = Toxicity in immune-competent Sprague-Dawley rat assessed as change in platelet count at 1 to 10 mg/kg, po administered twice a week for 5 weeks; format: organism-based; details: in vivo, 840 h, dose 1-10 mg/kg
[4] = Drug distribution in SCID mouse tumor at 0.3 mg/kg, po measured at 6 hrs by LC-MS/MS analysis; format: ADME, organism-based, Neoplasm; details: read-out: Ct
Cytochrome P450 2C9 = Cytochrome P450 2C9 (Homo sapiens, UniProt P11712); assay: Inhibition of CYP2C9 (unknown origin) preincubated with compound for 5 mins followed by NADPH addition and measured after 10 mins by LC-MS/MS analysis; format: ADME
[5] = Toxicity in immune-competent Sprague-Dawley rat assessed as change in eosinophil at 1 to 10 mg/kg, po administered twice a week for 5 weeks; format: organism-based; details: in vivo, 840 h, dose 1-10 mg/kg
[6] = Cmax in Sprague-Dawley rat at 3 mg/kg, po measured upto 24 hrs by LC/MS-MS analysis; format: ADME, organism-based; details: in vivo
[7] = Metabolic stability in rat plasma assessed as half life measured upto 120 mins by LC-MS/MS analysis; format: ADME, cell-free
[8] = Drug concentration in SCID mouse plasma at 1 mg/kg, po measured at 1 hr by LC-MS/MS analysis; format: ADME, organism-based
VCaP [9] = assay: Antitumor activity against human VCaP cells xenografted in SCID mouse assessed as tumor growth inhibition at 3 mg/kg, po administered for 4 week; format: functional; details: 672 h, time 4 weeks, read-out: TGI
[10] = Drug distribution in SCID mouse tumor at 1 mg/kg, po measured at 6 hrs by LC-MS/MS analysis; format: ADME, organism-based, Neoplasm; details: read-out: Ct
[11] = Drug distribution in Sprague-Dawley rat spleen at 3 mg/kg, po measured at 1 hr by LC-MS/MS analysis; format: ADME, organism-based; details: read-out: Ct
[12] = Drug concentration in SCID mouse tumor at 1 mg/kg, po measured at 24 hrs by LC-MS/MS analysis; format: ADME, organism-based, Neoplasm; details: read-out: Ct
[13] = Drug distribution in SCID mouse plasma at 1 mg/kg, po measured at 24 hrs by LC-MS/MS analysis; format: ADME, organism-based
[14] = Metabolic stability in dog liver microsome assessed as half life measured upto 60 mins in presence of NADPH by LC-MS/MS analysis; format: ADME, Canis lupus familiaris; details: liver microsomes
[15] = Drug distribution in SCID mouse spleen at 3 mg/kg, po measured at 24 hrs by LC-MS/MS analysis; format: ADME, organism-based; details: read-out: Ct
[16] = Oral bioavailability in ICR mouse at 3 mg/kg measured upto 24 hrs by LC/MS-MS analysis; format: ADME, organism-based; details: in vivo
[17] = Drug distribution in SCID mouse tumor at 3 mg/kg, po measured at 6 hrs by LC-MS/MS analysis; format: ADME, organism-based, Neoplasm; details: read-out: Ct
[18] = Drug distribution in SCID mouse plasma at 3 mg/kg, po measured at 24 hrs by LC-MS/MS analysis; format: ADME, organism-based
[19] = Drug distribution in Sprague-Dawley rat plasma at 3 mg/kg, po measured at 24 hrs by LC-MS/MS analysis; format: ADME, organism-based
[20] = Toxicity in immune-competent Sprague-Dawley rat assessed as change in basophil at 1 to 10 mg/kg, po administered twice a week for 5 weeks; format: organism-based; details: in vivo, 840 h, dose 1-10 mg/kg
CWR22R = assay: Antitumor activity against human 22Rv1 cells xenografted in SCID mouse assessed as tumor growth inhibition at 3 mg/kg, po administered 3 times a week for 3 weeks; format: functional; details: 22Rv1, 504 h, read-out: TGI
[21] = Toxicity in male BALB/c mouse assessed as body weight loss at 30 mg/kg, po administered twice a week for 5 to 6 weeks; format: organism-based; details: in vivo, time 5-6 weeks
[22] = Metabolic stability in mouse liver microsome assessed as half life measured upto 60 mins in presence of NADPH by LC-MS/MS analysis; format: ADME; details: liver microsomes
[23] = Drug distribution in Sprague-Dawley rat plasma at 10 mg/kg, po measured at 24 hrs by LC-MS/MS analysis; format: ADME, organism-based
[24] = Drug distribution in Sprague-Dawley rat plasma at 10 mg/kg, po measured at 6 hrs by LC-MS/MS analysis; format: ADME, organism-based
[25] = Drug distribution in SCID mouse liver at 1 mg/kg, po measured at 24 hrs by LC-MS/MS analysis; format: ADME, organism-based; details: read-out: Ct
[26] = AUC in ICR mouse at 3 mg/kg, po measured upto 24 hrs by LC/MS-MS analysis; format: ADME, organism-based; details: in vivo
[27] = Drug distribution in Sprague-Dawley rat spleen at 10 mg/kg, po measured at 1 hr by LC-MS/MS analysis; format: ADME, organism-based; details: read-out: Ct
[28] = Drug distribution in Sprague-Dawley rat spleen at 10 mg/kg, po measured at 6 hrs by LC-MS/MS analysis; format: ADME, organism-based; details: read-out: Ct
[29] = Drug distribution in Sprague-Dawley rat heart at 3 mg/kg, po measured at 1 hr by LC-MS/MS analysis; format: ADME, organism-based; details: read-out: Ct
VCaP [30] = assay: Antitumor activity against human VCaP cells xenografted in SCID mouse assessed as tumor regression at 1 mg/kg, po administered 3 times a week for 4 weeks; format: functional
[31] = Half life in ICR mouse at 3 mg/kg, po measured upto 24 hrs by LC/MS-MS analysis; format: ADME, organism-based; details: in vivo

Cytochrome P450 2C9, sequence (P11712 whole entry): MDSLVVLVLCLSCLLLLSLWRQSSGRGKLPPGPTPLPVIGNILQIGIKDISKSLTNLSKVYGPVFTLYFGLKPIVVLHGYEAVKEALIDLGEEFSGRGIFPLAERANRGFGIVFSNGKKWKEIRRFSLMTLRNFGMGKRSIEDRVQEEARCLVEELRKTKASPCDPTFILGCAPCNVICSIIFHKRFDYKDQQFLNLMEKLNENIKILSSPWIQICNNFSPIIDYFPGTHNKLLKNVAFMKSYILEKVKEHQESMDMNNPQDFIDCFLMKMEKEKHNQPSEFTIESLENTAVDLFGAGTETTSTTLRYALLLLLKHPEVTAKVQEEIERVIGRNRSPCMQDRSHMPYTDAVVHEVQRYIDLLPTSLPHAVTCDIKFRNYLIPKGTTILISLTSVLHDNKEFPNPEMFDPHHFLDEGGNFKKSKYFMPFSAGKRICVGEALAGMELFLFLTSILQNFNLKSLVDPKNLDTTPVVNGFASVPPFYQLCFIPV

## CC(=O)N1CCc2c(c(N3CCCc4cc(-c5cnn(C)c5)c(C(F)F)cc43)nn2[C@H]2CC[C@H](CN3Cc4cc5c(cc4C3)C(=O)N(C3CCC(=O)NC3=O)C5=O)CC2)C1 (stereo partly drawn)
[1]
  concentration at 6 h: 127 ng/mL
[2]
  DC50: 0.3 nM
[3]
  Activity: Non-Toxic
[4]
  concentration at 6 h: 14.4 ng/g
Cytochrome P450 2C9
  IC50: > 10000 nM
[5]
  Activity: Non-Toxic
[6]
  Cmax: 221 ng/mL
[7]
  half-life: 48 min
[8]
  concentration at 1 h: 141 ng/mL
VCaP [9]
  inhibition in vivo at 3 mg/kg: 57%
[10]
  concentration at 6 h: 64.3 ng/g
[11]
  concentration at 1 h: 832 ng/g
[12]
  concentration at 24 h: 6.3 ng/g
[13]
  concentration at 24 h: 3.3 ng/mL
[14]
  half-life: 49 min
[15]
  concentration at 24 h: 21.2 ng/mL
[16]
  bioavailability: 60%
[17]
  concentration at 6 h: 294 ng/g
[18]
  concentration at 24 h: 12.7 ng/mL
[19]
  concentration at 24 h: 1.3 ng/mL
[20]
  Activity: Non-Toxic
CWR22R
  inhibition in vivo at 3 mg/kg: 83%
[21]
  Activity: < 5%
[22]
  half-life: > 120 min
[23]
  concentration at 24 h: 1.3 ng/mL
[24]
  concentration at 6 h: 41.4 ng/mL
[25]
  concentration at 24 h: 13.7 ng/mL
[26]
  AUC at 24 h: 4190 ng·h/mL
[27]
  concentration at 1 h: 1990 ng/g
[28]
  concentration at 6 h: 406 ng/g
[29]
  concentration at 1 h: 246 ng/g
VCaP [30]
  Activity: 31%
[31]
  half-life: 186 min
